Converted amounts (≈) assume the structure as drawn. Read-outs that look alike come from different tables or passages of the source.
Experiments:
[1] = reported values; cited from earlier work
[2] = male, ICR, mouse, in vivo, po
A. baumannii strain AYE = test: Time-kill assay; type: cell-based; conditions: 4 × MIC
Method: Time-kill assays were performed as defined previously.

[3] = test system: major human CYP isoforms other than CYP3A (midazolam substrate); test: Cytochrome P450 inhibition panel; conditions: human recombinant CYP enzymes in microsomal preparations
E. faecium = test: MIC (microbroth dilution); type: cell-based, Enterococcus faecium; conditions: for MIC: Enterococcus faecium
Method: (§1) All bacteria were maintained on tryptic soy agar (TSA), except Streptococcus spp., which were maintained on Columbia agar plates containing 5% horse blood. All bacterial assays were carried out in tryptic soy broth (TSB), except for Streptococcus spp. which were grown in cation-adjusted Mueller Hinton broth containing 2.5% lysed horse blood. Bacteria were grown to stationary phase in liquid culture overnight, with shaking at 200 rpm, before being back diluted to the relevant starting concentration for each assay below. MICs were measured by the microbroth dilution method. […] Absorbance at OD600 was read on a CLARIOstar spectrophotometer (BMG Labtech) and the MIC was defined as the minimum concentration of compound where no visible growth was detected. The compounds were prepared as a DMSO stock and equivalent concentrations of DMSO had no effect on bacterial growth. MICs were also performed in the presence of the outer membrane permeator, polymyxin b nonapeptide (PMBN) following the same MIC method but with the following variation. The 2-fold dilution series of compound was prepared as above, then 50 μL of PMBN at a final concentration of 30 μg/mL was added to relevant wells, while 50 μL/well of blank media was added to the remaining wells. Bacteria were then added at 50 μL/well for a starting concentration as above. Thirty μg/mL of PMBN had no effect on bacterial growth. The MICs were read and defined as above. All animal procedures were performed by the contract research organization Pharmacology Discovery Services Taiwan in accordance with the Guide for the Care and Use of Laboratory Animals. The procedures were approved by the Institutional Ethics Committee of Pharmacology Discovery Services Taiwan, Ltd. (approval no. AB127662), in compliance with animal welfare legislation in Taiwan.

E. faecalis = test: MIC (microbroth dilution); type: cell-based, Enterococcus faecalis; conditions: for MIC: Enterococcus faecalis
Method: as §1, with “All bacterial assays were carried out in tryptic soy broth (TSB), except for Streptococcus spp. which were grown in cation-adjusted Mueller Hinton broth containing 2.5% lysed horse blood.” left out, “The compounds were prepared as a DMSO stock and equivalent concentrations of DMSO had no effect on bacterial growth.” left out, “Thirty μg/mL of PMBN had no effect on bacterial growth.” left out

[4] = test system: Staphylococcus epidermidis, S. hemolyticus and S. saprophyticus; test: MIC, extended Gram-positive panel (grouped species); type: cell-based, Staphylococcus spp.
Method: as §1, with “Thirty μg/mL of PMBN had no effect on bacterial growth.” left out, “All animal procedures were performed by the contract research organization Pharmacology Discovery Services Taiwan in accordance with the Guide for the Care and Use of Laboratory Animals. The procedures were approved by the Institutional Ethics Committee of Pharmacology Discovery Services Taiwan, Ltd. (approval no. AB127662), in compliance with animal welfare legislation in Taiwan.” left out

S. haemolyticus = test: MIC (microbroth dilution); type: cell-based, Staphylococcus haemolyticus; conditions: Staphylococcus haemolyticus, ATCC29970; ATCC 29970; read-out: MIC
Method: as §1

[5] = test system: S. oralis, S. mutans, S. salivarius, S. sanguinis, and S. pyogenes; test: MIC, extended Gram-positive panel (grouped species); type: cell-based, Streptococcus spp.
Method: as §1, with “Thirty μg/mL of PMBN had no effect on bacterial growth.” left out, “All animal procedures were performed by the contract research organization Pharmacology Discovery Services Taiwan in accordance with the Guide for the Care and Use of Laboratory Animals. The procedures were approved by the Institutional Ethics Committee of Pharmacology Discovery Services Taiwan, Ltd. (approval no. AB127662), in compliance with animal welfare legislation in Taiwan.” left out

Streptococcus oralis = test: MIC (microbroth dilution); type: cell-based; conditions: ATCC9811, ATCC 9811
In short: (§2)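 Broth microdilution MICs were run in tryptic soy broth, or for Streptococcus spp. in cation-adjusted Mueller Hinton broth with 2.5% lysed horse blood, using overnight stationary-phase cultures back-diluted. MIC was the lowest concentration with no visible growth, with OD600 also read. Some MICs included PMBN at 30 μg/mL final.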

Streptococcus mutans = test: MIC (microbroth dilution); type: cell-based; conditions: ATCC25175, ATCC 25175
In short: as §2

Streptococcus sanguinis = test: MIC (microbroth dilution); type: cell-based; conditions: ATCC10556, ATCC 10556
In short: as §2

Streptococcus salivarius = test: MIC (microbroth dilution); type: cell-based; conditions: ATCC13419, ATCC 13419
In short: as §2

[6] = test system: Streptococcus intermedius; test: MIC (microbroth dilution); type: cell-based; conditions: ATCC29663, ATCC 29663
In short: as §2

[7] = test system: Staphylococcus saprophyticus; test: MIC (microbroth dilution); type: cell-based; conditions: ATCC15305, ATCC 15305
In short: as §2

Streptococcus pneumoniae = test: MIC (microbroth dilution); type: cell-based; conditions: for MIC: Streptococcus pneumoniae
In short: as §2

Enterococcus gallinarum = test: MIC (microbroth dilution); type: cell-based; conditions: VanC (ATCC 49608)
In short: as §2
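Wherever Response (death/test) is given: male ICR mice given oral doses under a stepwise escalation scheme to find the highest tolerated dose.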

In the case of `C[C@H]1COc2c(N3CCN(C)CC3)c(F)cc3c(=O)c(C(=O)O)cn1c23` [Levofloxacin, (S)-9-Fluoro-3-methyl-10-(4-methylpiperazin-1-yl)-7-oxo-2,3-dihydro-7H-[1,4]oxazino[2,3,4-ij]quinoline-6-carboxylic acid, reference compound], the plasma protein binding [1] is given as 38%.

For `C[C@H]1COc2c(N3CC[C@@H](Nc4ncccn4)C3)c(F)cc3c(=O)c(C(=O)O)cn1c23` [Compound 46, (S)-9-Fluoro-3-methyl-7-oxo-10-((R)-3-(pyrimidin-2-ylamino)pyrrolidin-1-yl)-2,3-dihydro-7H-[1,4]oxazino[2,3,4-ij]quinoline-6-carboxylic acid], the “Response (death/test)” value ([2]; 100 mg/kg) was 0/3, the “Response (death/test)” value ([2]; 100 mg/kg, 24 h) was 0/3 and the “Response (death/test)” value ([2]; 100 mg/kg, 48 h) was 0/3. For the same compound, the “Response (death/test)” value ([2]; 100 mg/kg, 72 h) was 0/3, the “Response (death/test)” value ([2]; 200 mg/kg) was 0/3 and the “Response (death/test)” value ([2]; 400 mg/kg) was 0/3. For the same compound, the time-kill profile (A. baumannii strain AYE) was “rapid bactericidal activity” and the inhibition at 10 µM [3] was no more than 13%.

In the case of `Cc1cc(C)nc(N[C@@H]2CCN(c3c(F)cc4c(=O)c(C(=O)O)cn5c4c3OC[C@@H]5C)C2)n1` [Compound 50, (S)-10-((R)-3-((4,6-Dimethylpyrimidin-2-yl)amino)pyrrolidin-1-yl)-9-fluoro-3-methyl-7-oxo-2,3-dihydro-7H-[1,4]oxazino[2,3,4-ij]quinoline-6-carboxylic acid], the MIC (E. faecium; ATCC19434, ATCC 19434, read-out: MIC) is reported as 1 µg/mL (≈ 2.21 µM), the MIC (E. faecium; ATCC700221, VanA (ATCC 700221), read-out: MIC) is reported as 0.5 µg/mL (≈ 1.1 µM) and the MIC (E. faecium; BAA2320, VanA (BAA-2320), read-out: MIC) is reported as 1 µg/mL (≈ 2.21 µM). It also gave an MIC (E. faecium; CCUG56431, VanB (CCUG 56431), read-out: MIC) of 0.25 µg/mL (≈ 0.551 µM), an MIC (E. faecium; CCUG56858) of 0.125 µg/mL (≈ 0.276 µM) and an MIC (E. faecium; CCUG58354, VanD (CCUG 58354), read-out: MIC) of 0.25 µg/mL (≈ 0.551 µM). For the same compound, the MIC (E. faecium; CCUG59167, VanA (TUH44-29; CCUG 59167), read-out: MIC) was 1 µg/mL (≈ 2.21 µM), the “MIC range” value (E. faecium; including VanA, VanB, and VanD phenotypes) was 0.125 to 1 µg/mL and the MIC (E. faecalis; ATCC29212, ATCC 29212, read-out: MIC) was 0.25 µg/mL (≈ 0.551 µM). For the same compound, the MIC (E. faecalis; ATCC51299) was 0.125 µg/mL (≈ 0.276 µM), the MIC (E. faecalis; ATCC51575, VanB (ATCC 51575), read-out: MIC) was 0.25 µg/mL (≈ 0.551 µM) and the MIC (E. faecalis; ATCC700802) was 0.125 µg/mL (≈ 0.276 µM). The MIC (E. faecalis; CCUG47775, VanA (CCUG 47775), read-out: MIC) was 0.5 µg/mL (≈ 1.1 µM), the “MIC range” value (E. faecalis; clinical isolates, Table S11B) was 0.125 to 0.5 µg/mL and the “MIC range” value [4] was 0.03125 to 0.06 µg/mL. The MIC (S. haemolyticus) was 0.03 µg/mL (≈ 0.0662 µM), the “MIC range” value [5] was 0.03 to 0.25 µg/mL and the MIC (Streptococcus oralis) was 0.25 µg/mL (≈ 0.551 µM). The MIC (Streptococcus mutans) was 0.03 µg/mL (≈ 0.0662 µM), the MIC (Streptococcus sanguinis) was 0.25 µg/mL (≈ 0.551 µM) and the MIC (Streptococcus salivarius) was 0.25 µg/mL (≈ 0.551 µM). For the same compound, the MIC [6] was 0.03 µg/mL (≈ 0.0662 µM), the MIC [7] was 0.06 µg/mL (≈ 0.132 µM) and the MIC (Streptococcus pneumoniae; ATCC6301) was 0.125 µg/mL (≈ 0.276 µM). It also gave an MIC (Streptococcus pneumoniae; ATCC49619) of 0.125 µg/mL (≈ 0.276 µM), an MIC (Streptococcus pneumoniae; ATCC51916) of 0.125 µg/mL (≈ 0.276 µM) and an MIC (Streptococcus pneumoniae; ATCC700669, ST 23F (ATCC 700669), read-out: MIC) of 0.06 µg/mL (≈ 0.132 µM). The MIC (Streptococcus pneumoniae; ATCC700673, MDR (ATCC 700673), read-out: MIC) was 0.06 µg/mL (≈ 0.132 µM), the MIC (Streptococcus pneumoniae; ATCC700675, ATCC 700675, read-out: MIC) was 0.06 µg/mL (≈ 0.132 µM) and the MIC (Streptococcus pneumoniae; ATCC700676) was 0.125 µg/mL (≈ 0.276 µM). For the same compound, the MIC (Streptococcus pneumoniae; ATCC 700677 / PRSP, PRSP (ATCC 700677), read-out: MIC) was 0.06 µg/mL (≈ 0.132 µM), the MIC (Streptococcus pneumoniae; PRSP (TM532), read-out: MIC) was 0.06 µg/mL (≈ 0.132 µM) and the “MIC range” value (Streptococcus pneumoniae; including MDR and PRSP strains) was 0.06 to 0.125 µg/mL. For the same compound, the MIC (Enterococcus gallinarum; Enterococcus gallinarum, ATCC 49608 / GALLINARUM, read-out: MIC) was 0.25 µg/mL (≈ 0.551 µM) and the MIC (Enterococcus gallinarum) was 0.25 µg/mL (≈ 0.551 µM).
